“Also recorded” adds a separate entry of the source.

One data set has as its target T1, RORγ (NR1F3) (Homo sapiens, UniProt P51449).
T1 construct: coding for the hinge region, and LBD of the canonical isoform of the respective nuclear receptor; expressed in transfected cells; host or cells: HEK293T
T1 sequence (P51449 269-508 limits assumed): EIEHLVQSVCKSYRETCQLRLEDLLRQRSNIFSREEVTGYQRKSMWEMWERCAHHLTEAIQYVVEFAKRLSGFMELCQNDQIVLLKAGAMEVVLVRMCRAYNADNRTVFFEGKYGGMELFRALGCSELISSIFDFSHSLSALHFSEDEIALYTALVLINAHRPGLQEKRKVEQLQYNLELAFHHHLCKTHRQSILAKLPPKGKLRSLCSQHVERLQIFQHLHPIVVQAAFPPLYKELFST
Put plainly: Gal4-RORγ hybrid reporter gene assay (off-target profiling). Type of data set: cell-based. To be noted: compared with T0901317. The source says:
(§1) For the hybrid reporter gene assays, the previously reported Gal4-fusion receptor plasmids pFA-CMV-hRORα-LBD, pFA-CMV-hRORβ-LBD, pFA-CMV-hRORγ-LBD, pFA-CMV-hLXRα-LBD, pFA-CMV-hLXRβ-LBD, pFA-CMV-hFXR-LBD, pFA-CMV-hPXR-LBD, and pFA-CMV-hRXRα-LBD, coding for the hinge region, and LBD of the canonical isoform of the respective nuclear receptor were used. pFR-Luc (Stratagene) was used as the reporter plasmid, and pRL-SV40 (Promega) was used in all assays for the normalization of transfection efficiency and cell growth. pECE-SV40-Gal4-VP16 was a gift from Lea Sistonen (Addgene plasmid #71728). The LXR-responsive reporter ABCA1-pGL3 was used for the full-length reporter gene assay.
(§2) The day before transfection, HEK293T cells were seeded in 96-well plates (4 × 10^4 cells/well). Before transfection, the medium was changed to Opti-MEM without any supplements. […] Luminescence was measured with a Spark 10 M luminometer (Tecan Deutschland GmbH). […] EC50/IC50 values and the standard errors thereof were calculated with the mean fold activation values by OriginPro, Version 2025 (OriginLab Corporation, Northampton, MA, USA), fitting a dose–response curve with a variable Hill slope (Levenberg–Marquardt algorithm). […]

The target of the next data set is T2, PXR (NR1I2) (Homo sapiens, UniProt O75469).
T2 construct: coding for the hinge region, and LBD of the canonical isoform of the respective nuclear receptor; expressed in transfected cells; host or cells: HEK293T
T2 sequence (O75469 146-433 limits assumed): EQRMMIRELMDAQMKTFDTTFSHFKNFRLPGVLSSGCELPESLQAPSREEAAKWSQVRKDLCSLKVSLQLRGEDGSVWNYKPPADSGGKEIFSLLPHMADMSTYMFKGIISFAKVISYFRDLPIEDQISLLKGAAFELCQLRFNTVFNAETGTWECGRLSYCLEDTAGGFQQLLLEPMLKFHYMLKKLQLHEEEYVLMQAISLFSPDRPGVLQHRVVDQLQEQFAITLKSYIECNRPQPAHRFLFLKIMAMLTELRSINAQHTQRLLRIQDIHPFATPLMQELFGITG
Put plainly: Gal4-PXR hybrid reporter gene assay (off-target profiling). It counts as cell-based. To be noted: compared with T0901317.
Description: as §1, §2

Consider `CCN(C(=O)c1ccccc1)c1ccc(C(O)(C(F)(F)F)C(F)(F)F)cc1` [Compound 1, N-Ethyl-N-(4-[1,1,1,3,3,3-hexafluoro-2-hydroxypropan-2-yl]phenyl)benzamide], for which the RORγ activity result on RORγ (NR1F3) was “reduced activity; also recorded: weaker inverse RORγ agonist”. On PXR (NR1I2), the PXR activity entry is recorded as “reduced activity; also recorded: PXR agonism was retained”.

The record behind these values is paper PMC12621175, “Scaffold Fusion and SAR Transfer with a Chemical Language Model Generates Novel Liver X Receptor Modulators” (Journal of Medicinal Chemistry, 2025).
